The target in experiment [1] is T1, BCAT2 (Homo sapiens, UniProt O15382).
T1 sequence (O15382 28-392): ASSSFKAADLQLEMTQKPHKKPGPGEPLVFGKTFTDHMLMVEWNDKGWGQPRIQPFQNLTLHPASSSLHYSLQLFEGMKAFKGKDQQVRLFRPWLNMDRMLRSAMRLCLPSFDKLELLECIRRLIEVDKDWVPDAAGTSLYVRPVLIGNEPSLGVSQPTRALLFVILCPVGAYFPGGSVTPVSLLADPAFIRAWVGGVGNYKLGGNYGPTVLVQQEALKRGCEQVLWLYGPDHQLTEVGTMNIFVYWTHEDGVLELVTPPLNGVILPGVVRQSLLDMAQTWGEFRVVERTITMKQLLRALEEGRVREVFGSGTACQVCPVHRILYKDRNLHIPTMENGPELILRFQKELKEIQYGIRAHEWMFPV
The experiment in a line: BCAT2 cell inhibition using engineered A549 cells (MUT KO, BCAT1 KO; 13C6-KMV formation by LC-MS/MS). The class given is cell-based. Also noted: expressed endogenous BCAT2; endogenous in cells; host or cells: A549 cells, MUT knockout and BCAT1 knockout. The essentials:
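Medium 13C6-KMV formation is read by LC-MS/MS after PFBHA derivatization with d8-KMV internal standard. Cells are CRISPR MUT/BCAT1 double-knockout A549 expressing endogenous BCAT2, given compound 15 min before labelled isoleucine (800 uM, added 1:1) for 24 h. CTG viability run in parallel; replicates averaged.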

The target in experiment [2] is T1, BCAT2. The experiment in a line: BCAT2 in vitro enzyme inhibition assay (hBCAT2, glutamate dehydrogenase/diaphorase/resazurin coupled fluorescence read). The class given is biochemical. As to conditions: hBCAT2, 1 h preincubation at 25° C., one hour reaction; average where tested multiple times. Put shortly:
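Coupled GDH/diaphorase/resazurin fluorescence (Ex 540/Em 590) read after 1 h reaction at 25 °C, SDS-stopped; enzyme (0.33 μg/mL in mix) first preincubated 1 h with compound, 10-point 3-fold series from 100 μM final, Tris pH 8.0 buffer with NaCl, BSA; technical duplicates, averaged across tests.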

Bounds are passed on as bounds.

From patent publication US20260334439A1, “BCAT2 INHIBITORS” (Agios Pharmaceuticals, Inc., priority 2023, published 2026) come the findings set out here.

For `O=C1c2c(F)cccc2CN1[C@H]1CCC[C@@H](n2c(-c3ccccc3F)nc3cnc(-c4nc[nH]n4)cc32)C1` [Example 175, 7-fluoro-2-((1S,3R)-3-(2-(2-fluorophenyl)-6-(1H-1,2,4-triazol-3-yl)-1H-imidazo[4,5-c]pyridin-1-yl)cyclohexyl)isoindolin-1-one], the IC50 on BCAT2 [1] and at BCAT2 [2] was < 100 nM each time.

Turning to `O=C1c2ccc(F)cc2CN1[C@H]1CCC[C@@H](n2c(-c3ccccc3F)nc3cnc(-c4nc[nH]n4)cc32)C1` [Example 176, 5-fluoro-2-((1S,3R)-3-(2-(2-fluorophenyl)-6-(1H-1,2,4-triazol-3-yl)-1H-imidazo[4,5-c]pyridin-1-yl)cyclohexyl)isoindolin-1-one], the IC50 on BCAT2 [1] was 100 to 500 nM; at BCAT2 [2] it was < 100 nM.

Consider `O=C1c2cccc(F)c2CN1[C@H]1CCC[C@@H](n2c(-c3ccccc3F)nc3cnc(-c4nc[nH]n4)cc32)C1` [Example 177, 4-fluoro-2-((1S,3R)-3-(2-(2-fluorophenyl)-6-(1H-1,2,4-triazol-3-yl)-1H-imidazo[4,5-c]pyridin-1-yl)cyclohexyl)isoindolin-1-one], for which the IC50 was 100 to 500 nM against BCAT2 [1] and < 100 nM at BCAT2 [2].

`O=C1c2c(ccc(F)c2F)CN1[C@H]1CCC[C@@H](n2c(-c3ccccc3F)nc3cnc(-c4nc[nH]n4)cc32)C1` [Example 178, 6,7-difluoro-2-((1S,3R)-3-(2-(2-fluorophenyl)-6-(1H-1,2,4-triazol-3-yl)-1H-imidazo[4,5-c]pyridin-1-yl)cyclohexyl)isoindolin-1-one]: the IC50 at BCAT2 [1] and against BCAT2 [2] was < 100 nM in each case.

On to `O=C1c2cc(F)ccc2CN1[C@H]1CCC[C@@H](n2c(-c3c(O)cccc3F)nc3cnc(-c4nc[nH]n4)cc32)C1` [Example 179, 6-fluoro-2-((1S,3R)-3-(2-(2-fluoro-6-hydroxyphenyl)-6-(1H-1,2,4-triazol-3-yl)-1H-imidazo[4,5-c]pyridin-1-yl)cyclohexyl)isoindolin-1-one], for which the IC50 against BCAT2 [1] and against BCAT2 [2] was < 100 nM in each case.

With `Cc1coc(-c2cc3c(cn2)nc(-c2ccccc2OCCO)n3[C@@H]2CCC[C@H](N3Cc4ccc(F)cc4C3=O)C2)n1` [Example 181, 6-fluoro-2-((1S,3R)-3-(2-(2-(2-hydroxyethoxy)phenyl)-6-(4-methyloxazol-2-yl)-1H-imidazo[4,5-c]pyridin-1-yl)cyclohexyl)isoindolin-1-one], the IC50 against BCAT2 [1] and against BCAT2 [2] was < 100 nM each time.

For `O=C1c2ccc(F)cc2C(=O)N1[C@H]1CCC[C@@H](n2c(-c3ccccc3F)nc3cnc(-c4nc[nH]n4)cc32)C1` [Example 182, 5-fluoro-2-((1S,3R)-3-(2-(2-fluorophenyl)-6-(1H-1,2,4-triazol-3-yl)-1H-imidazo[4,5-c]pyridin-1-yl)cyclohexyl)isoindoline-1,3-dione], the IC50 against BCAT2 [1] and on BCAT2 [2] was < 100 nM each time.

With `O=C1c2cc(Cl)ccc2CN1[C@H]1CCC[C@@H](n2c(-c3ccccc3F)nc3cnc(-c4nc[nH]n4)cc32)[C@@H]1O` [Example 183, 6-chloro-2-((1S,2S,3R)-3-(2-(2-fluorophenyl)-6-(1H-1,2,4-triazol-3-yl)-1H-imidazo[4,5-c]pyridin-1-yl)-2-hydroxycyclohexyl)isoindolin-1-one], the IC50 at BCAT2 [1] and against BCAT2 [2] was < 100 nM throughout.

For the compound `O=C1c2cc(F)ccc2CN1[C@H]1CCC[C@@H](n2c(-c3ccccc3F)nc3cnc(-c4nc[nH]n4)cc32)[C@@H]1O` [Example 184, 6-fluoro-2-((1S,2S,3R)-3-(2-(2-fluorophenyl)-6-(1H-1,2,4-triazol-3-yl)-1H-imidazo[4,5-c]pyridin-1-yl)-2-hydroxycyclohexyl)isoindolin-1-one], the IC50 against BCAT2 [1] and on BCAT2 [2] was < 100 nM throughout.

As to `O=C1c2cc(F)ccc2CN1[C@H]1CCC[C@@H](n2c(-c3ccccc3F)nc3cnc(-n4nccn4)cc32)[C@@H]1O` [Example 185, 6-fluoro-2-((1S,2S,3R)-3-(2-(2-fluorophenyl)-6-(2H-1,2,3-triazol-2-yl)-1H-imidazo[4,5-c]pyridin-1-yl)-2-hydroxycyclohexyl)isoindolin-1-one], the IC50 against BCAT2 [1] and against BCAT2 [2] was < 100 nM each time.

As for `O=C1c2cc(F)ccc2CN1[C@H]1CCC[C@@H](n2c(-c3c(F)cccc3F)nc3cnc(-n4nccn4)cc32)[C@@H]1O` [Example 186, 2-((1S,2S,3R)-3-(2-(2,6-difluorophenyl)-6-(2H-1,2,3-triazol-2-yl)-1H-imidazo[4,5-c]pyridin-1-yl)-2-hydroxycyclohexyl)-6-fluoroisoindolin-1-one], the IC50 on BCAT2 [1] and at BCAT2 [2] was < 100 nM in each case.

For `O=C1c2cc(F)ccc2CN1[C@H]1CCC[C@@H](n2c(-c3c(F)cccc3F)nc3cnc(-c4ncccn4)cc32)[C@@H]1O` [Example 187, 2-((1S,2S,3R)-3-(2-(2,6-difluorophenyl)-6-(pyrimidin-2-yl)-1H-imidazo[4,5-c]pyridin-1-yl)-2-hydroxycyclohexyl)-6-fluoroisoindolin-1-one], the values for the IC50 against BCAT2 [1] and against BCAT2 [2] were 100 to 500 nM and < 100 nM, respectively.

As to `CO[C@H]1C[C@H](N2Cc3ccc(F)cc3C2=O)C[C@H](n2c(-c3c(O)cccc3F)nc3cnc(-c4nc[nH]n4)cc32)C1` [Example 192, 6-fluoro-2-((1R,3S,5R)-3-(2-(2-fluoro-6-hydroxyphenyl)-6-(1H-1,2,4-triazol-3-yl)-1H-imidazo[4,5-c]pyridin-1-yl)-5-methoxycyclohexyl)isoindolin-1-one], the IC50 against BCAT2 [1] was 100 to 500 nM; against BCAT2 [2], < 100 nM.

For `CO[C@H]1C[C@H](N2Cc3ccc(F)cc3C2=O)C[C@H](n2c(-c3ccccc3OCCO)nc3ccc(-c4ncccn4)cc32)C1` [Example 194, 6-fluoro-2-((1R,3S,5R)-3-(2-(2-(2-hydroxyethoxy)phenyl)-6-(pyrimidin-2-yl)-1H-benzo[d]imidazol-1-yl)-5-methoxycyclohexyl)isoindolin-1-one], the IC50 against BCAT2 [1] and on BCAT2 [2] was < 100 nM in each case.

With `CO[C@@H]1C[C@H](N2Cc3ccc(F)cc3C2=O)C[C@H](n2c(-c3ccccc3F)nc3cnc(-c4nc[nH]n4)cc32)C1` [Example 195, 6-fluoro-2-((1R,3S,5S)-3-(2-(2-fluorophenyl)-6-(1H-1,2,4-triazol-3-yl)-1H-imidazo[4,5-c]pyridin-1-yl)-5-methoxycyclohexyl)isoindolin-1-one], the IC50 against BCAT2 [1] and at BCAT2 [2] was < 100 nM each time.

As for `CC(=O)N1C[C@H](N2Cc3ccc(F)cc3C2=O)C[C@H](n2c(-c3ccccc3F)nc3cnc(-n4nccn4)cc32)C1` [Example 200, 2-((3R,5S)-1-acetyl-5-(2-(2-fluorophenyl)-6-(2H-1,2,3-triazol-2-yl)-1H-imidazo[4,5-c]pyridin-1-yl)piperidin-3-yl)-6-fluoroisoindolin-1-one], the IC50 against BCAT2 [1] and at BCAT2 [2] was < 100 nM in each case.

With `CC(=O)N1CC(N2Cc3ccc(F)cc3C2=O)CC(n2c(-c3c(F)cccc3F)nc3cnc(-c4nc[nH]n4)cc32)C1` (stereo not shown) [Example 201, 2-(1-acetyl-5-(2-(2,6-difluorophenyl)-6-(1H-1,2,4-triazol-3-yl)-1H-imidazo[4,5-c]pyridin-1-yl)piperidin-3-yl)-6-fluoroisoindolin-1-one], the IC50 against BCAT2 [1] and on BCAT2 [2] was < 100 nM each time.
